Source: patent US20250091989A1, “SMALL MOLECULE PROTEIN SYNTHESIS MODULATORS” (Interdict Bio, Inc., priority 2023, published 2025)

Legend:
[1] = tested on: HEK 293T; experiment: Cell viability (CellTiter-Fluor), HEK 293T; format: cell-based; settings: Homo sapiens, 24-72 hrs
Method: (§1) Count and dispense 2,000-10,000 cells per well (100 μL volume) in black 96-well tissue culture microplate and let cells adhere overnight. Add compound dissolved in 100% DMSO to each well as needed and incubate cells in standard culture conditions for 24-72 hrs. Final DMSO concentration in each well should be 0.1-0.5%. At the desired time point, gently aspirate compound containing media and replace with PBS to wash. Repeat wash step for 2 total washes. Remove PBS and add 100 μL CellTiter-Fluor reagent (Promega) reagent to each well. Seal plate and incubate 1 hr at room temperature with orbital shaking. Analyze fluorescence using plate reader to quantify viable cells compared with vehicle (DMSO) control.

[2] = tested on: HCC38; experiment: Cell viability (CellTiter-Fluor), HCC38; format: cell-based; settings: Homo sapiens, HCC38, 24-72 hrs
Method: as §1

[3] = tested on: NCI-H1915; experiment: Cell viability (CellTiter-Fluor), NCI-H1915; format: cell-based; settings: NCI-H1915, 24-72 hrs
Method: as §1

[4] = tested on: HPAF-II; experiment: Cell viability (CellTiter-Fluor), HPAF-II; format: cell-based; settings: Homo sapiens, 24-72 hrs
Method: as §1

[5] = tested on: KATO-III; experiment: Cell viability (CellTiter-Fluor), KATO-III; format: cell-based; settings: Homo sapiens, 24-72 hrs
Method: as §1

[6] = tested on: MYC; experiment: In vitro transcription-translation (IVTT) reporter assay, MYC test sequence; format: biochemical; settings: HeLa S3 lysate, sfGFP/mCherry ratio, 2 hrs at 30° C.
In short: (§2)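 Coupled transcription-translation in HeLa S3 lysate with reporter plasmids encoding mCherry-P2A-3×FLAG-TEST-sfGFP behind an EMCV IRES. Compounds were half-log titrated (30 μM-0.1 μM in DMSO dilution plate) into master mix, then DNA was added. Reactions ran 2 hrs at 30° C, were PBS-quenched and read for fluorescence.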

[7] = tested on: MCF7; experiment: Cell viability (CellTiter-Fluor), MCF7; format: cell-based; settings: Homo sapiens, MCF7, 24-72 hrs
Method: as §1

[8] = tested on: MS751; experiment: Cell viability (CellTiter-Fluor), MS751; format: cell-based; settings: MS751, 24-72 hrs
Method: as §1

[9] = tested on: KRAS G12D; experiment: In vitro transcription-translation (IVTT) reporter assay, KRAS G12D test sequence; format: biochemical; settings: HeLa S3 lysate, sfGFP/mCherry ratio, 2 hrs at 30° C.
In short: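 Cell-free HeLa S3 lysate transcription-translation of reporter plasmids encoding mCherry-P2A-3×FLAG-test peptide (CCND1, KRAS G12D, MCL-1 or BCL-2)-sfGFP under EMCV IRES. Half-log compound dilutions (30 μM-0.1 μM, prepared in DMSO); reactions 2 h at 30 °C, quenched with PBS for fluorescence read.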

[10] = tested on: ALK; experiment: In vitro transcription-translation (IVTT) reporter assay, ALK test sequence; format: biochemical; settings: HeLa S3 lysate, sfGFP/mCherry ratio, 2 hrs at 30° C.
In short: as §2

[11] = tested on: T47D; experiment: Cell viability (CellTiter-Fluor), T47D; format: cell-based; settings: Homo sapiens, 24-72 hrs
Method: as §1

[12] = tested on: KLE; experiment: Cell viability (CellTiter-Fluor), KLE; format: cell-based; settings: Homo sapiens, 24-72 hrs
Method: as §1

[13] = tested on: LS411N; experiment: Cell viability (CellTiter-Fluor), LS411N; format: cell-based; settings: Homo sapiens, LS-411N, 24-72 hrs
Method: as §1

[14] = tested on: MCL-1; experiment: In vitro transcription-translation (IVTT) reporter assay, MCL-1 test sequence; format: biochemical; settings: HeLa S3 lysate, sfGFP/mCherry ratio, 2 hrs at 30° C.
Text: (§3) All reporter constructs have been cloned into the pT7CFE1-CHis plasmid (ThermoFisher #88860) using Gibson assembly procedures (NEB #E2611L). The parental pT7CFE1-CHis plasmid contains an EMCV IRES at the 5′UTR for translation initiation, a multiple-cloning site (MCS) for gene insertion, an optional C-terminal His-epitope tag, and polyA sequence in the 3′UTR to regulate mRNA stability. All reporters are designed to be inserted at the MCS to include a red fluorescent protein (mCherry), P2A self-cleaving peptide which releases the preceding mCherry protein product, and a fusion open reading frame containing a 3×FLAG epitope, a peptide sequence of interest (TEST), and green fluorescent protein (sfGFP).
(§4) Construct Plasmid Preparation: All plasmids are isolated from MACH1 cells (ThermoFisher) grown overnight in ampicillin-containing luria broth, and purified using ZymoPure Express Plasmid Midiprep Kit (Zymo Research). Constructs are sequenced verified and diluted to a working concentration of 110 ng/μL.
(§5) HeLa S3 Lysate Preparation: HeLa S3 cell pellets are acquired from Ipracell/Ipratech (Belgium) and shipped as 4 mL frozen cell pellets on dry ice for storage at −80° C. until use. The procedure for lysate preparation is as follows. Prepare 1× Lysis Buffer, cold and stored on ice:
(§6) Each preparation takes 8 cell pellets (4 ml packed volume each, approximately 1.0×10^9 cells per pellet). Thaw cell pellets from −80° C. on ice for 90 mins. Lay pellets horizontally on top of the ice and rotate every 30 mins to ensure even thawing. Once thawed, add 4 mL of cold lysis buffer to each pellet, and using a serological pipet, gently pipet up and down to break up clumps. Incubate resuspended cells in ice for an additional 30 mins (plunged into ice). During 30 min incubation, rinse and RNase-zap (Ambion) glass dounces (use loose pestle “A”), gently dry and place on ice until needed. Prepare RNase-free Eppendorf tubes for spinning and for batch storage. Add batch labels to 1.5-1.7 mL RNase-free microcentrifuge tubes (labeling scheme below). Each batch will have an extra 1.5-1.7 mL RNase-free microcentrifuge tube for 40 μL of lysate, label the top of this tube (labeling scheme below). After 30 min incubation, transfer all 8 mL of cell pellet to dounce. Cell lysis is complete after douncing 100 times. Aliquot cell lysis into 1.5-1.7 mL temporary-microcentrifuge tubes. Place tubes in centrifuge with “fins” out, and spin at 1,200 xg for 5 mins. After the first spin use a 1 mL pipet to resuspend each tube and repeat spin. This acts as an additional lysis step, is more vigorous and increases lysate yield. During second spin get liquid N2 and a fresh conical tube on ice.
(§7) After spin is complete, transfer supernatant (lysate) from microcentrifuge tubes into the 50 mL conical tube and keep on ice. Repeat steps 10-14 for all other cell pellets until completed. Once all cell lysate has been transferred to the 50 mL conical tube pipet to mix so the solution is homogenous. Transfer 1 mL of lysate into batch-labeled microcentrifuge tubes and flash freeze in liquid nitrogen. Be sure to pipet up and down to mix throughout transfer step. Place all tubes in the […] for long-term storage.
(§8) In vitro transcription-translation assay setup: Each assay includes a master mix containing lysate and shared components, a 96-well plate containing compound titrations for testing, a 96-well DNA plate with reporter constructs to be tested, 96-well skirted PCR plates, and 96-well flat-bottom, black, fluorescent assay plates. […]

[15] = tested on: CCND1; experiment: In vitro transcription-translation (IVTT) reporter assay, CCND1 test sequence; format: biochemical; settings: HeLa S3 lysate, sfGFP/mCherry ratio, 2 hrs at 30° C.
Text: as §3, §4, §5, §6, §7, §8

[16] = tested on: BCL-2; experiment: In vitro transcription-translation (IVTT) reporter assay, BCL-2 test sequence; format: biochemical; settings: HeLa S3 lysate, sfGFP/mCherry ratio, 2 hrs at 30° C.
Text: as §3, §4, §5, §6, §7, §8

[17] = tested on: HEPG2; experiment: Cell viability (CellTiter-Fluor), HEPG2; format: cell-based; settings: Homo sapiens, HEPG2, 24-72 hrs
Method: as §1

SMILES	IC50 [1] [nM]	IC50 [2] [nM]	IC50 [3] [nM]	IC50 [4] [nM]	IC50 [5] [nM]	IC50 [6] [nM]	IC50 [7] [nM]	IC50 [8] [nM]	IC50 [9] [nM]	IC50 [10] [nM]	IC50 [11] [nM]	IC50 [12] [nM]	IC50 [13] [nM]	IC50 [14] [nM]	IC50 [15] [nM]	IC50 [16] [nM]	IC50 [17] [nM]
COc1ccc(CC2NCC(O)C2OC(=O)CC2CC2(F)F)cc1 [V187061, 2R,3S,4S)-4-hydroxy-2-[(4-methoxyphenyl)methyl]pyrrolidin-3-yl 2-(2,2-difluorocyclopropyl)acetate]	< 250	250 to 1000	250 to 1000	250 to 1000	1000 to 4000	< 10000	250 to 1000	< 250	< 10000	< 10000	250 to 1000	250 to 1000	< 250	–	–	–	–
CC(=O)O[C@@H]1[C@@H](O)CN[C@@H]1Cc1ccc(-c2cn(Cc3cn[nH]c3)nn2)cc1 [V187844]	–	–	–	–	–	< 10000	–	–	–	–	–	–	–	< 10000	< 10000	< 10000	–
COc1ccc(C[C@H]2NC[C@H](O)[C@H]2OC(=O)Cc2cnc[nH]2)cc1 [V0109, (2R,3S,4S)-4-hydroxy-2-[(4-methoxyphenyl)methyl]pyrrolidin-3-yl 2-(3H-imidazol-4-yl)acetate]	< 250	–	250 to 1000	250 to 1000	–	< 10000	250 to 1000	–	< 10000	< 10000	–	250 to 1000	250 to 1000	–	< 10000	–	–
COc1ccc(C[C@H]2NC[C@H](O)[C@H]2OC(=O)CC2CC(F)(F)C2)cc1 [V187043, (2R,3S,4S)-4-hydroxy-2-[(4-methoxyphenyl)methyl]pyrrolidin-3-yl 2-(3,3-difluorocyclobutyl)acetate; trifluoroacetic acid]	< 250	< 250	250 to 1000	250 to 1000	250 to 1000	< 10000	< 250	< 250	< 10000	< 10000	< 250	< 250	< 250	–	–	–	–
COc1ccc(C[C@H]2NC[C@H](O)[C@H]2OC(=O)C[C@@H]2CCNC2)cc1 [V187690]	250 to 1000	1000 to 4000	≥ 4000	≥ 4000	1000 to 4000	< 10000	250 to 1000	250 to 1000	< 10000	< 10000	1000 to 4000	1000 to 4000	250 to 1000	< 10000	< 10000	< 10000	250 to 1000
CC(=O)O[C@@H]1[C@@H](O)CN[C@@H]1Cc1ccc(-c2cn(C)nn2)cc1 [V187748]	–	–	–	–	–	< 10000	–	–	–	–	–	–	–	< 10000	< 10000	< 10000	–
COc1ccc(C[C@H]2NC[C@H](O)[C@H]2OC(=O)Cc2cscn2)cc1 [V187049]	< 250	< 250	< 250	< 250	< 250	< 10000	< 250	< 250	< 10000	< 10000	< 250	< 250	< 250	–	< 10000	–	–
